Six compounds from patent US20240190883A1, “KRAS PROTEIN DEGRADERS, PHARMACEUTICAL COMPOSITIONS THEREOF, AND THEIR THERAPEUTIC APPLICATIONS” (BioTheryX, Inc., priority 2021, published 2024) can be followed below.

What all share (type): cell-based
The test system of experiment [1] is SW48 (wt) cells. Nature of the experiment: Cell viability assay (CELLTITER-GLO), SW48 cells. The following applies: Homo sapiens, 72 h, 3 days incubation, 2.5% fetal bovine serum, read-out: Inhibition of Cancerous Cells IC50 (μM) SW48 (wt). The protocol:
(§1) H358, H23, SW48, and AsPC-1 cells were cultured in RPMI 1640 media supplemented with 10% fetal bovine serum, streptomycin, and penicillin. Lovo and SW480 cells were cultured in DMEM media supplemented with 10% fetal bovine serum, streptomycin, and penicillin. The cell lines were plated in their respective medium supplemented with 2.5% fetal bovine serum, streptomycin, and penicillin. All cell lines were plated in white walled 96-well plates at 2,000 cells/well or 384-well plates at 500 cells/well, except Lovo, which were plated at 4,000 or 1,000 cells/well, respectively. The cells were incubated in DMSO (control) or a compound for 3 days at 37° C. under 5% C02. A CELLTITER-GLO® reagent (100 μL) was then added to each well. After a 10 min incubation with shaking, luminescence was measured using an ENVISION® multimode plate reader. IC50 values are summarized in Table 1 and percentages of inhibition are summarized in Table 2, where compound T1 is 2-(4-(2-methyl-3,5-diphenylpyrazolo[1,5-a]pyrimidin-7-yl)piperazin-1-yl)ethan-1-ol.

Experiment [2] concerns Lovo (G13D) cells. Nature of the experiment: Cell viability assay (CELLTITER-GLO), Lovo cells. The following applies: Homo sapiens, 72 h, 3 days incubation, 2.5% fetal bovine serum, read-out: Inhibition of Cancerous Cells IC50 (μM) Lovo (G13D). The protocol:
as §1

For experiment [3], the system named is H358 (G12C) cells. Nature of the experiment: Cell viability assay (CELLTITER-GLO), H358 cells. The following applies: Homo sapiens, NCI-H358, 72 h, 3 days incubation, 2.5% fetal bovine serum, read-out: Inhibition of Cancerous Cells IC50 (μM) H358 (G12C). How it is done: as §1
For experiment [4], the system named is AsPC-1 (G12D) cells. Nature of the experiment: Cell viability assay (CELLTITER-GLO), AsPC-1 cells. The note with it: Homo sapiens, ASPC1, 72 h, 3 days incubation, 2.5% fetal bovine serum, read-out: Inhibition of Cancerous Cells IC50 (μM) AsPC-1 (G12D). The protocol: as §1
The subject of experiment [5] is SW480 (G12V) cells. Nature of the experiment: Cell viability assay (CELLTITER-GLO), SW480 cells. The following applies: Homo sapiens, 72 h, 3 days incubation, 2.5% fetal bovine serum, read-out: Inhibition of Cancerous Cells IC50 (μM) SW480 (G12V). The protocol:
as §1

`Cc1nn2c(N3CCN(CCO)CC3)cc(-c3ccccc3)nc2c1-c1cccc(CCCCCN2CCN(C(=O)CNc3ccc4c(C5CCC(=O)NC5=O)nn(C)c4c3)CC2)c1` (stereo not drawn) [Compound D8, 3-(6-((2-(4-(5-(3-(7-(4-(2-Hydroxyethyl)piperazin-1-yl)-2-methyl-5-phenyl-pyrazolo[1,5-a]pyrimidin-3-yl)phenyl)pentyl)piperazin-1-yl)-2-oxoethyl)amino)-1-methyl-1H-indazol-3-yl)piperidine-2,6-dione]: the IC50 in experiment [1] turned out to be 0.72 µM; in experiment [2], 0.63 µM; in experiment [3] it was 1.2 µM; in experiment [4] it was 1.3 µM; in experiment [5], 0.4 µM.
The corresponding values for `Cc1nn2c(N3CCN(CCO)CC3)cc(-c3ccccc3)nc2c1-c1cccc(CCCCCCCN2CCN(C(=O)CNc3ccc4c(C5CCC(=O)NC5=O)nn(C)c4c3)CC2)c1` (stereo not drawn) [Compound D9, 3-(6-((2-(4-(7-(3-(7-(4-(2-Hydroxyethyl)piperazin-1-yl)-2-methyl-5-phenyl-pyrazolo[1,5-a]pyrimidin-3-yl)phenyl)heptyl)piperazin-1-yl)-2-oxoethyl)amino)-1-methyl-1H-indazol-3-yl)piperidine-2,6-dione] are 0.72 µM, 0.51 µM, 1 µM, 1.3 µM and 0.46 µM.
On the same counts, the results for `Cc1nn2c(N3CCN(CCO)CC3)cc(-c3ccccc3)nc2c1-c1cccc(CCCN2CCN(C(=O)CNc3cccc4c(C5CCC(=O)NC5=O)nn(C)c34)CC2)c1` (stereo not drawn) [Compound D10, 3-(7-((2-(4-(3-(3-(7-(4-(2-Hydroxyethyl)piperazin-1-yl)-2-methyl-5-phenyl-pyrazolo[1,5-a]pyrimidin-3-yl)phenyl)propyl)piperazin-1-yl)-2-oxoethyl)amino)-1-methyl-1H-indazol-3-yl)piperidine-2,6-dione] are 1.3 µM, 0.87 µM, 2.4 µM, 1.4 µM and 0.63 µM.
As for `Cc1nn2c(N3CCN(CCO)CC3)cc(-c3ccccc3)nc2c1-c1cccc(CCCCCN2CCN(C(=O)CNc3cccc4c(C5CCC(=O)NC5=O)nn(C)c34)CC2)c1` (stereo not drawn) [Compound D11, 3-(7-((2-(4-(5-(3-(7-(4-(2-Hydroxyethyl)piperazin-1-yl)-2-methyl-5-phenyl-pyrazolo[1,5-a]pyrimidin-3-yl)phenyl)pentyl)piperazin-1-yl)-2-oxoethyl)amino)-1-methyl-1H-indazol-3-yl)piperidine-2,6-dione], the IC50 in experiment [1] amounted to 0.84 µM; in experiment [2], 0.73 µM; in experiment [3] it was 1.2 µM; in experiment [4], 1.4 µM; in experiment [5] it was 0.48 µM.
On the same counts, the results for `Cc1nn2c(N3CCN(CCO)CC3)cc(-c3ccccc3)nc2c1-c1cccc(CCCCCCCN2CCN(C(=O)CNc3cccc4c(C5CCC(=O)NC5=O)nn(C)c34)CC2)c1` (stereo not drawn) [Compound D12, 3-(7-((2-(4-(7-(3-(7-(4-(2-Hydroxyethyl)piperazin-1-yl)-2-methyl-5-phenyl-pyrazolo[1,5-a]pyrimidin-3-yl)phenyl)heptyl)piperazin-1-yl)-2-oxoethyl)amino)-1-methyl-1H-indazol-3-yl)piperidine-2,6-dione] are 0.96 µM, 0.92 µM, 1.2 µM, 1.4 µM and 0.47 µM.
The corresponding values for `Cc1nn2c(N3CCN(CCO)CC3)cc(-c3ccccc3)nc2c1-c1cccc(CCCN2CCN(C(=O)CNc3ccc4c(N5CCC(=O)NC5=O)nn(C)c4c3)CC2)c1` [Compound D13, 1-(6-((2-(4-(3-(3-(7-(4-(2-Hydroxyethyl)piperazin-1-yl)-2-methyl-5-phenyl-pyrazolo[1,5-a]pyrimidin-3-yl)phenyl)propyl)piperazin-1-yl)-2-oxoethyl)amino)-1-methyl-1H-indazol-3-yl)dihydropyrimidine-2,4(1H,3H)-dione] are 2 µM, 0.66 µM, 1.1 µM, 2.3 µM and 0.76 µM.
